Measured values from US12606561B2, “Substituted pyrazolo[1,5-a][1,3,5]triazines as CDK inhibitors” (QURIENT CO., LTD., priority 2018, dated 2026).

Tests used:
[1] = biological target: T1, CDK5/p25 (Homo sapiens, UniProt Q00535); assay: Enzymatic assay for CDK5 (LANCE Ultra kinase assay, FRET based); assay type: biochemical; conditions: ATP at Km
T1 construct: purchased Invitrogen PR8543B
In short: (§1)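 Compounds tested as 8 doses in 4-fold steps against CDK2/Cyclin A ([…]) or CDK5/p25 ([…]), with ATP at its Km and 68 nM ULight-MBP substrate. After 60 min at 23° C., EDTA plus Eu-labelled anti-phospho-MBP added; TR-FRET (615/665 nm) read after another 60 min.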

[2] = biological target: T2, CDK1/Cyclin B (Homo sapiens, UniProt P06493); assay: Enzymatic assay for CDK1 (LANCE Ultra kinase assay, FRET based); assay type: biochemical; conditions: ATP at Km; read-out: CDK1 enzymatic activity IC50
T2 construct: purchased Invitrogen PR4768C
T2 sequence (P06493 whole entry): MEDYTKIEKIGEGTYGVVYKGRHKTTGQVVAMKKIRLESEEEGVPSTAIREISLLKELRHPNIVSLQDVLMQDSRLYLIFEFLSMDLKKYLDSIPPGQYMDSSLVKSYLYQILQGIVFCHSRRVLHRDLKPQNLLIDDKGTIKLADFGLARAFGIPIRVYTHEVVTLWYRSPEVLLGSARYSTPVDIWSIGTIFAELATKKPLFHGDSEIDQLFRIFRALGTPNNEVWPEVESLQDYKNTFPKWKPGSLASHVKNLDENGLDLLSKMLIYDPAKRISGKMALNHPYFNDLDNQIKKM
T2 sequence (P14635 whole entry partner): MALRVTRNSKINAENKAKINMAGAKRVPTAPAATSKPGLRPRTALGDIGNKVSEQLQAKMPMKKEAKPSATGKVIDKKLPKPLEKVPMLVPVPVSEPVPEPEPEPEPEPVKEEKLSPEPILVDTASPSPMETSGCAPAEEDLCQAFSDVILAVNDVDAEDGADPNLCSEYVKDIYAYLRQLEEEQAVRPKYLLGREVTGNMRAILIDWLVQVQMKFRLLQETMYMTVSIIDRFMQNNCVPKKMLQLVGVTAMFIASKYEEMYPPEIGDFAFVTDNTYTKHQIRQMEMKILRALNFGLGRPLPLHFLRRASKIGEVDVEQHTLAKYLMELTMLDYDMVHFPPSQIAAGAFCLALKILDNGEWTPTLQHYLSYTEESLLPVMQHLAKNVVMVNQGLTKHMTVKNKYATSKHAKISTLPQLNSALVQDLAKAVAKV
In short: (§2)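 Purified CDK–cyclin enzyme, ATP at Km; ULight peptide substrate; TR-FRET via Eu anti-phospho-Ab; inhibition scored.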

[3] = biological target: T3, CDK2/Cyclin A (Homo sapiens, UniProt P24941); assay: Enzymatic assay for CDK2 (LANCE Ultra kinase assay, FRET based); assay type: biochemical; conditions: ATP at Km
T3 construct: purchased Invitrogen PV6290
In short: as §1

[4] = system: OVCAR-3; assay: OVCAR-3 viability assay (CellTiter-Glo, 72 hours); assay type: cell-based; conditions: Homo sapiens; OVCAR-3 cells
In short: (§3)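 RPMI-1640/10% FBS; plate cells (MV4-11 1×10^4, OVCAR-3 5×10^3, A2780 1×10^3 per well); 24 h later add compound 0.0015–10 uM; 72 h, 37° C; CellTiter-Glo luminescence, duplicate wells.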

[5] = biological target: T4, CDK7/Cyclin H/MNAT1 (Homo sapiens, UniProt P50613); assay: Enzymatic assay for CDK7 (LANCE Ultra kinase assay, FRET based); assay type: biochemical; conditions: for IC50: ATP at Km
T4 construct: purchased Invitrogen PR6749B
T4 sequence (P50613 whole entry): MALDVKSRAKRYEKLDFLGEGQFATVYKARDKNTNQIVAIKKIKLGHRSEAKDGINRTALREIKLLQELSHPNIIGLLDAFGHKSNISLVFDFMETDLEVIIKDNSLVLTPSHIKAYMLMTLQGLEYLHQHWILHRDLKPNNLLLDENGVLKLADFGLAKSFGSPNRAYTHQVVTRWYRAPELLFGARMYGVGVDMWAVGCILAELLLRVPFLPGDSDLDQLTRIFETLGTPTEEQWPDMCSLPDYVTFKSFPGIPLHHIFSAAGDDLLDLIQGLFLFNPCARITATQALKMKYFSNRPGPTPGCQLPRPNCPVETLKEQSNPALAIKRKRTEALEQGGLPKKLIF
T4 sequence (P51946 whole entry partner): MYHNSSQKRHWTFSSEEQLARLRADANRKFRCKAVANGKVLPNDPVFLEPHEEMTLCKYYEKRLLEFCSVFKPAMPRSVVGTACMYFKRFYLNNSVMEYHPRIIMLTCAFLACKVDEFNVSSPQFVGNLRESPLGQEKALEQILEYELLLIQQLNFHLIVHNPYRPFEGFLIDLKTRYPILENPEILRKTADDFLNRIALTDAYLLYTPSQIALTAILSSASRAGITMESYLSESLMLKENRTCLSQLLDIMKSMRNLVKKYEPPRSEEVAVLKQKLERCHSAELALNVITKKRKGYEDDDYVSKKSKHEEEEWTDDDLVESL
T4 sequence (P51948 whole entry partner): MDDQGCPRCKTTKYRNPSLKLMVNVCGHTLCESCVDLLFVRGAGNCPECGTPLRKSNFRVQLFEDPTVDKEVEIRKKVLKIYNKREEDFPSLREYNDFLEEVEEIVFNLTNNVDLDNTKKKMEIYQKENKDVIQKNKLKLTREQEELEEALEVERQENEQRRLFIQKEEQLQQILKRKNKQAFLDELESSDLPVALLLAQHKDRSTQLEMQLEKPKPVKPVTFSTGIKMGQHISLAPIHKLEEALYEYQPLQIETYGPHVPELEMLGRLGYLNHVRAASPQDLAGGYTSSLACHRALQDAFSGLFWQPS
In short: as §2

[6] = system: A2780; assay: A2780 viability assay (CellTiter-Glo, 72 hours); assay type: cell-based; conditions: Homo sapiens; A2780 cells
In short: as §3

T1 sequence (Q00535 whole entry): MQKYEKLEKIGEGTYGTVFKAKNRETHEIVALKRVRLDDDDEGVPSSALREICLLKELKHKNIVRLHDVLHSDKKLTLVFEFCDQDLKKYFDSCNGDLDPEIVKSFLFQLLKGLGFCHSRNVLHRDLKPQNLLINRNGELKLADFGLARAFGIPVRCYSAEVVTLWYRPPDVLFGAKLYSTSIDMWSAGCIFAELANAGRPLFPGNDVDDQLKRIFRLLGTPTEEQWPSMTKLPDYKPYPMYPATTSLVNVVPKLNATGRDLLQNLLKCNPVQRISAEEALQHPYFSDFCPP
T1 sequence (Q15078 99-307 partner limits assumed): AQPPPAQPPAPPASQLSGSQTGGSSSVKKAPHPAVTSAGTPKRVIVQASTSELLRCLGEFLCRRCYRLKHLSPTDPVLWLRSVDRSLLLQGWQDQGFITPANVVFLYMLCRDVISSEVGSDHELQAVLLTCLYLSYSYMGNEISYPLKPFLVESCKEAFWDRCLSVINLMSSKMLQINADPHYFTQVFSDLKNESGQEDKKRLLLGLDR

Row | IC50 [1] [µM] | IC50 [2] [µM] | IC50 [3] [µM] | IC50 [4] [µM] | IC50 [5] [µM] | CDK1/CDK7: Selectivity of CDK7 inhibition over CDK1 inhibition [5] | CDK2/CDK7: Selectivity of CDK7 inhibition over CDK2 inhibition [5] | CDK5/CDK7: Selectivity of CDK7 inhibition over CDK5 inhibition [5] | IC50 [6] [µM] | Compound
1 | > 1 | > 1 | > 1 | < 1 | < 0.1 | A (A indicates [fold] > 500) | A (A indicates [fold] > 500) | A (A indicates [fold] > 500) | < 1 | CC(C)c1cnn2c(NCc3ccccc3-c3nccc4cc(NC(=O)/C=C/CN(C)C)ccc34)nc(NCC3CCN(C)CC3)nc12 [Compound 133]
2 | > 1 | > 1 | > 1 | < 1 | < 0.1 | A (A indicates [fold] > 500) | A (A indicates [fold] > 500) | A (A indicates [fold] > 500) | < 1 | C=C(F)C(=O)Nc1ccc2c(-c3ccccc3CNc3nc(O[C@@H]4CCCNC4)nc4c(C(C)C)cnn34)nccc2c1 [Compound 137]
3 | > 1 | > 1 | > 1 | < 1 | < 0.1 | A (A indicates [fold] > 500) | A (A indicates [fold] > 500) | A (A indicates [fold] > 500) | < 1 | CC(C)c1cnn2c(NCc3ccccc3-c3nccc4cc(NC(=O)/C=C/CN(C)C)ccc34)nc(NC3CCC(F)(F)CC3)nc12 [Compound 147]
4 | > 1 | > 1 | > 1 | < 1 | < 0.1 | A (A indicates [fold] > 500) | A (A indicates [fold] > 500) | A (A indicates [fold] > 500) | < 1 | CC(C)c1cnn2c(NCc3ccccc3-c3nccc4cc(NC(=O)/C=C/CN(C)C)ccc34)nc(N[C@@H]3CCCNC3)nc12 [Compound 150]
5 | > 1 | > 1 | > 1 | < 1 | < 0.1 | A (A indicates [fold] > 500) | A (A indicates [fold] > 500) | A (A indicates [fold] > 500) | < 1 | CC(C)c1cnn2c(NCc3ccccc3-c3nccc4cc(NC(=O)/C=C/CN(C)C)ccc34)nc(N[C@H]3CC[C@H](C)NC3)nc12 [Compound 151]
6 | > 1 | > 1 | > 1 | < 1 | < 0.1 | A (A indicates [fold] > 500) | A (A indicates [fold] > 500) | A (A indicates [fold] > 500) | < 1 | Cc1cc(NCc2ccccc2-c2nccc3cc(NC(=O)/C=C/CN(C)C)ccc23)n2ncc(C(C)C)c2n1 [Compound 153]
7 | > 1 | > 1 | > 1 | 1 to 10 | < 0.1 | A (A indicates [fold] > 500) | A (A indicates [fold] > 500) | A (A indicates [fold] > 500) | < 1 | CC(C)c1cnn2c(NCc3ccccc3-c3nccc4cc(NC(=O)/C=C/CN(C)C)ccc34)nc(N[C@@H]3CC[C@@H](C)NC3)nc12 [Compound 154]
8 | > 1 | > 1 | > 1 | 1 to 10 | 0.1 to 1 | B (B indicates 50 < [fold] ≤ 500) | B (B indicates 50 < [fold] ≤ 500) | B (B indicates 50 < [fold] ≤ 500) | < 1 | C=C(F)C(=O)Nc1ccc2c(-c3ccccc3CNc3cc(C)nc4c(C(C)C)cnn34)nccc2c1 [Compound 156]
9 | > 1 | > 1 | > 1 | 1 to 10 | < 0.1 | B (B indicates 50 < [fold] ≤ 500) | B (B indicates 50 < [fold] ≤ 500) | B (B indicates 50 < [fold] ≤ 500) | < 1 | C=C(F)C(=O)Nc1ccc2c(-c3ccccc3CNc3nc(NC[C@@H]4CCNC[C@H]4O)nc4c(C(C)C)cnn34)nccc2c1 [Compound 157]
10 | > 1 | > 1 | > 1 | < 1 | < 0.1 | A (A indicates [fold] > 500) | A (A indicates [fold] > 500) | A (A indicates [fold] > 500) | < 1 | C=C(F)C(=O)Nc1ccc2c(-c3ccccc3CNc3nc(NC[C@H]4CCNC[C@H]4O)nc4c(C(C)C)cnn34)nccc2c1 [Compound 158]
11 | > 1 | > 1 | > 1 | 1 to 10 | 0.1 to 1 | B (B indicates 50 < [fold] ≤ 500) | B (B indicates 50 < [fold] ≤ 500) | B (B indicates 50 < [fold] ≤ 500) | < 1 | C=C(F)C(=O)Nc1ccc2c(-c3ccccc3CNc3nc(O[C@H]4CCCNC4)nc4c(C(C)C)cnn34)nccc2c1 [Compound 159]
12 | > 1 | > 1 | > 1 | < 1 | < 0.1 | A (A indicates [fold] > 500) | A (A indicates [fold] > 500) | A (A indicates [fold] > 500) | < 1 | C=C(F)C(=O)Nc1ccc2c(-c3ccccc3CNc3nc(NCC4CCNCC4O)nc4c(C(C)C)cnn34)nccc2c1 (stereo not drawn) [Compound 160]
13 | > 1 | > 1 | > 1 | < 1 | < 0.1 | A (A indicates [fold] > 500) | A (A indicates [fold] > 500) | A (A indicates [fold] > 500) | < 1 | C=C(F)C(=O)Nc1ccc2c(-c3ccccc3CNc3nc(N[C@H]4CCCNC4)nc4c(C(C)C)cnn34)nccc2c1 [Compound 161]
14 | > 1 | > 1 | > 1 | 1 to 10 | < 0.1 | A (A indicates [fold] > 500) | A (A indicates [fold] > 500) | A (A indicates [fold] > 500) | < 1 | C=C(F)C(=O)Nc1ccc2c(-c3ccccc3CNc3nc(NC[C@@H]4CCNC[C@@H]4O)nc4c(C(C)C)cnn34)nccc2c1 [Compound 162]
15 | > 1 | > 1 | > 1 | < 1 | < 0.1 | A (A indicates [fold] > 500) | A (A indicates [fold] > 500) | A (A indicates [fold] > 500) | < 1 | C=C(F)C(=O)Nc1ccc2c(-c3ccccc3CNc3nc(N[C@@H]4CC[C@@H](C)NC4)nc4c(C(C)C)cnn34)nccc2c1 [Compound 163]
16 | > 1 | > 1 | > 1 | < 1 | < 0.1 | A (A indicates [fold] > 500) | A (A indicates [fold] > 500) | A (A indicates [fold] > 500) | < 1 | C=C(F)C(=O)Nc1ccc2c(-c3ccccc3CNc3nc(NC[C@H]4CCN(C)C[C@@H]4O)nc4c(C(C)C)cnn34)nccc2c1 [Compound 164]

Row | Compound | IC50 [1] [µM] | IC50 [2] [µM] | IC50 [3] [µM] | IC50 [4] [µM] | IC50 [5] [µM] | CDK1/CDK7: Selectivity of CDK7 inhibition over CDK1 inhibition [5] | CDK2/CDK7: Selectivity of CDK7 inhibition over CDK2 inhibition [5] | CDK5/CDK7: Selectivity of CDK7 inhibition over CDK5 inhibition [5] | IC50 [6] [µM]
17 | CC(C)c1cnn2c(NCc3ccccc3-c3nccc4cc(NC(=O)/C=C/CN(C)C)ccc34)nc(NC3CC4CCC(C3)N4C)nc12 (stereo not drawn) [Compound 130] | > 1 | > 1 | > 1 | 1 to 10 | < 0.1 | A (A indicates [fold] > 500) | A (A indicates [fold] > 500) | A (A indicates [fold] > 500) | < 1
